Measurements from ChEMBL document CHEMBL4616720 (J Med Chem, 2020).

Columns and labels:
[1] = system: A549; assay: Induction of apoptosis in human A549 cells assessed as live cells at 40 uM measured after 48 hrs by Annexin V-FITC/propidium iodide staining based FACSClibur flow cytometry analysis (reference value: 95.5 %); assay type: functional
[2] = system: A549; assay: Induction of apoptosis in human A549 cells assessed as early apoptotic cells at 40 uM measured after 48 hrs by Annexin V-FITC/propidium iodide staining based FACSClibur flow cytometry analysis (reference value: 0.40 %); assay type: functional
[3] = system: A549; assay: Induction of apoptosis in human A549 cells assessed as live cells at 40 uM measured after 24 hrs by Annexin V-FITC/propidium iodide staining based FACSClibur flow cytometry analysis (reference value: 97 %); assay type: functional
[4] = biological target: T1, Protein deacetylase HDAC6 (Homo sapiens) (UniProt Q9UBN7); assay: Inhibition of HDAC6 (unknown origin) at 10 uM using Boc-Lys(Ac)-pNA as substrate preincubated for 20 mins followed by substrate addition and further incubated for 90 mins by fluorescence assay relative to control
T1 sequence (whole entry): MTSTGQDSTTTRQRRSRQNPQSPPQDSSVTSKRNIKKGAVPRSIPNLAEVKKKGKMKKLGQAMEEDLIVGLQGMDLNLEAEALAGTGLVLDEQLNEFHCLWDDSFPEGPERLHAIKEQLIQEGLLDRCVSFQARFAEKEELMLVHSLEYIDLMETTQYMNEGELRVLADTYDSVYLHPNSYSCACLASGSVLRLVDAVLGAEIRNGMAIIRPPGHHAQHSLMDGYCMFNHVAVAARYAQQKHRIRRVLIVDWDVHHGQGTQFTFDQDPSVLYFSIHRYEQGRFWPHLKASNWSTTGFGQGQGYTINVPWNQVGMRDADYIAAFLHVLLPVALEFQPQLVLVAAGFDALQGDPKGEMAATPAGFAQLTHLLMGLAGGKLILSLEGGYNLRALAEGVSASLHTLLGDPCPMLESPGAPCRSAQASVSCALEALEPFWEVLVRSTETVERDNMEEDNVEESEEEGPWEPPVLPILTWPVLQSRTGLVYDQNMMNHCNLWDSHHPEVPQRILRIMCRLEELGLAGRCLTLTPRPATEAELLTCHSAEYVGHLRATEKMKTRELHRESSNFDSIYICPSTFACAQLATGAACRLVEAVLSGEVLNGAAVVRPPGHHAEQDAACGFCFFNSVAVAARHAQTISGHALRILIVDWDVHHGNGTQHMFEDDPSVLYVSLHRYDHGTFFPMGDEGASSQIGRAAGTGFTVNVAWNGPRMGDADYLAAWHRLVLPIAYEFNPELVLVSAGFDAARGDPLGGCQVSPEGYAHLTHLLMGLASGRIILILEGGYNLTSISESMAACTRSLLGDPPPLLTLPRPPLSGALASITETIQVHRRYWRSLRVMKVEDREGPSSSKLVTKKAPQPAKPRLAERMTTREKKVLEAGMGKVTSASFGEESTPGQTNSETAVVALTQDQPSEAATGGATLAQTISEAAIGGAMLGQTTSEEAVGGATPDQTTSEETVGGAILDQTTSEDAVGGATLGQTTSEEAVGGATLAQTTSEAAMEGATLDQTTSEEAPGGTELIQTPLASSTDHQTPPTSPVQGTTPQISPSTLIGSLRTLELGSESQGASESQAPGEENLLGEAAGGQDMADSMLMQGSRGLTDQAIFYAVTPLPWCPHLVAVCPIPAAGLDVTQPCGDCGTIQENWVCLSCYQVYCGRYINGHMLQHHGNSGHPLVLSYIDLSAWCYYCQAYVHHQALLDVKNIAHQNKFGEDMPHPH

[5] = system: HCT-116; assay: Antitumor activity against human HCT116 cells xenografted in BALB/c nude mouse assessed as tumor growth inhibition at 25 mg/kg, ip administered every 3 days for 21 days and measured every second day for 21 days during compound dosing by digital caliper method relative to control; assay type: functional; conditions: HCT-116, ip, read-out: TGI
[6] = biological target: Histone deacetylase 1 (Homo sapiens, UniProt Q13547); assay: Inhibition of HDAC1 (unknown origin) at 10 uM using Boc-Lys(Ac)-pNA as substrate preincubated for 20 mins followed by substrate addition and further incubated for 90 mins by fluorescence assay relative to control
Histone deacetylase 1, sequence (Q13547 whole entry): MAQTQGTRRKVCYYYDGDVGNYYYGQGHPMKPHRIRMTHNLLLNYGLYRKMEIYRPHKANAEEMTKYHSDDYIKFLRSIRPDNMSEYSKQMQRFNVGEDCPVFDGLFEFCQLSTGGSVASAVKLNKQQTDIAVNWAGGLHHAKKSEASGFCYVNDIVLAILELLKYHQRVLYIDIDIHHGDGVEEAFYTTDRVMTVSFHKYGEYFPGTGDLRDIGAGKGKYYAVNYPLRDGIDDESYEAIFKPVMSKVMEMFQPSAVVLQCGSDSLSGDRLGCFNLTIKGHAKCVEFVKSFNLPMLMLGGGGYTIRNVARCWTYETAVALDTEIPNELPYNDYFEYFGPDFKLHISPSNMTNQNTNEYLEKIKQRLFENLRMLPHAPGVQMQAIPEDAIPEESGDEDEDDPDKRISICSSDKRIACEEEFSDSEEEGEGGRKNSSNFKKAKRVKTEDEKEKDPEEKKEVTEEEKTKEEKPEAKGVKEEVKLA

[7] = Acute toxicity in iv dosed KM mouse administered as single dose measured for 14 days; assay type: organism-based; conditions: in vivo
[8] = system: A549; assay: Induction of apoptosis in human A549 cells assessed as early apoptotic cells at 40 uM measured after 24 hrs by Annexin V-FITC/propidium iodide staining based FACSClibur flow cytometry analysis (reference value: 0.35 %); assay type: functional

Structure (SMILES): O=C(C[C@@H](CC1CCCC1)C(=O)N1CC2(CC2)C[C@H]1c1nc(-c2ccc(F)cc2C(F)(F)F)no1)NO
- Activity [1]: 80.9%
- Activity [2]: 12.6%
- Activity [3]: 87.8%
- inhibition [4]: 0.41%
- inhibition in vivo at 25 mg/kg [5]: 64%
- inhibition [6]: -0.35%
- LD50 at 336 h [7]: 287 to 452 mg/kg
- Activity [8]: 4.03%
